Measurements: patent US20100204118A1, “USE OF GRF-1 (1-29 ) AND CORTICOTROPIN-RELEASING FACTOR AS THERAPEUTIC AGENTS” (priority 2007, published 2010)
Ends that are not written are not given here.

Columns and labels:
[1] = test system: HCMV strain AD169; test: HCMV plaque reduction assay in MRC-5 cells; type: cell-based; settings: for inhibition of HCMV plaque formation as compared to the virus control experiment: 10 micrograms per ml, 7-10 days
[2] = test system: murine spleen cells; test: Th1/Th2 cytokine profiling assay (Ovalbumin-restimulated spleen cells, CBA kit); type: cell-based, mouse; settings: 10 micrograms per ml; 72 hours after Ovalbumin restimulation
[3] = test system: A549 cells; test: Apoptosis induction assay (Annexin-5); type: cell-based, human; settings: 10 micrograms per ml, 24 hours
[4] = test system: Primary Human endothelial cells (HUVEC); test: Endothelial cell migration assay; type: cell-based; settings: 10 micrograms per ml, 22 hours
[5] = test system: hepatitis B virus (HBV) ayw strain; test: HBV experimental assay system, HepG2-2.2.15, TaqMan PCR of secreted HBV DNA; type: cell-based; settings: 10 micrograms per ml; six days; HBV DNA in supernatant
Text: HepG2-2.2.15 is a stable cell line containing the hepatitis B virus (HBV) ayw strain genome (ATCC Cat. No. CRL-11997). Antiviral compounds blocking any late step of viral replication such as transcription, translation, pregenome encapsidation, reverse transcription, particle assembly and release can be identified and characterized using this cell line. In this assay, an active compound will reduce the production of secreted HBV from cells, measured by utilizing real time quantitative PCR (TaqMan) assay to directly and accurately measure HBV DNA copies.
HepG2-2.2.15 cells were plated in 96-well microtiter plates. After 16-24 hours the confluent monolayer of HepG2-2.2.15 cells was washed and the medium was replaced with complete medium containing test peptides—10 micrograms per ml—in duplicate. […] Six days following the initial administration of the peptides, the cell culture supernatants was collected, treated with pronase and DNAse and then used in a real-time quantitative TaqMan PCR assay. The PCR-amplified HBV DNA was detected in real-time by monitoring increases in fluorescence signals that result from the exonucleolytic degradation of a quenched fluorescence probe molecule that hybridizes to the mplified HBV DNA. […] Antiviral activity was calculated from the reduction in HBV DNA levels (% virus control). […]

[6] = test system: HUVEC; test: Endothelial tube formation assay; type: cell-based, human; settings: 10 micrograms per ml, 20 hours
Description: The endothelial tube formation assay is based on the ability of endothelial cells to form three-dimensional capillary-like tubular structures when cultured on a gel of basement membrane extract. The endothelial tube formation assay represents a powerful model for studying inhibition and induction of angiogenesis. Pre-labeled HUVEC with Calcein AM were seeded in a 96-well culture plate coated with extracellular metrix (Chemicon international Cat. ECM625) and treated with test peptides-10 micrograms per ml-in full growth medium. […] control was vehicle only. […] Duplicate wells for each treatment were photographed and quantitatevily analyzed for an average tubule length using image analysis software ImageProPlus. Raw data were expressed as average tubule […]±standard deviation. Statistic p values were computed using the Student's t-test.

[7] = test system: HIV-1IIB; test: HIV-1 antiviral assay in CEM-SS cells (MTS readout); type: cell-based

| Compound | production of IL-2, induced by [2] | production of IL-5, decreased by [2] | production of TNF-alpha, induced by [2] | inhibition of HCMV plaque formation as compared to the virus control experiment [1] | inhibition of HBV replication as compared to the virus control infection [5] | inhibition of the tube formation of human endothelial cells [6] | antiviral activity of positive control compounds (HIV-1) [7] | also measured |
| --- | --- | --- | --- | --- | --- | --- | --- | --- |
| Nc1nc(O)c2ncn(COC(CO)CO)c2n1 [Ganciclovir, reference compound] | – | – | – | – | – | – | – | antiviral activity of positive control compound (HCMV) ([1]; positive control): expected levels of antiviral activity |
| Tyr-Ala-Asp-Ala-Ile-Phe-Thr-Asn-Ser-Tyr-Arg-Lys-Val-Leu-Gly-Gln-Leu-Ser-Ala-Arg-Lys-Leu-Leu-Gln-Asp-Ile-Met-Ser-Arg-NH2 (YADAIFTNSYRKVLGQLSARKLLQDIMSR-NH2) [Peptide 1] | 30.9% | 33.0 | 55.5% | 0.7% | 30.5% | did not inhibit | – | change of the production of IL-4 (in words) [2]: did not significantly change; production of IFN-gamma, decreased by [2]: 29.0; induction of apoptosis on human lung cells (in words) [3]: did not show any significant induction of apoptosis; inhibition of the migration of human endothelial cells [4]: 9% |
| CC(C)(C)NC(=O)[C@@H]1CN(Cc2cccnc2)CCN1C[C@@H](O)C[C@@H](Cc1ccccc1)C(=O)N[C@H]1c2ccccc2C[C@H]1O [indinavir] | – | – | – | – | – | – | expected levels of antiviral activity | – |
| Ser-Glu-Glu-Pro-Pro-Ile-Ser-Leu-Asp-Leu-Thr-Phe-His-Leu-Leu-Arg-Glu-Val-Leu-Glu-Met-Ala-Arg-Ala-Glu-Gln-Leu- Ala-Gln-Gln-Ala-His-Ser-Asn-Arg-Lys-Leu-Met-Glu-Ile-Ile-N H2 (SEEPPISLDLTFHLLREVLEMARAEQLAQQAHSNRKLMEII-NH2) [Peptide 2] | 66.5% | 93.0 | 38.1% | 3.2% | 57.2% | did not inhibit | – | production of IFN-gamma, induced by [2]: 44.1%; production of IL-4, induced by [2]: 78.1%; induction of apoptosis on human lung cells [3]: 0.9%; inhibition of the migration of human endothelial cells (in words) [4]: did not inhibit |
| Cc1cn([C@H]2C[C@H](N=[N+]=[N-])[C@@H](CO)O2)c(=O)[nH]c1=O [AZT] | – | – | – | – | – | – | expected levels of antiviral activity | – |
